# Data as given in patent US8241866B2, “Method for detection of microorganism and kit for detection of microorganism” (Morinaga Milk Industry Co., Ltd., priority 2005, dated 2012).
# Tests used:
# [1] = test system: Mycobacterium tuberculosis H37RA; experiment: FCM after SYTO9/PI staining of EMA-treated Mycobacterium tuberculosis (live, injured, dead cells)
# [2] = test system: chromosomal DNA of Citrobacter koseri JCM 1658; experiment: Agarose gel electrophoresis of chromosomal DNA after EMA treatment, Citrobacter; type: cell-based; design: key: presence of this band was indicated as (+); absence of this band was indicated as (−); details: EMA 4° C. 30 minutes
# [3] = test system: chromosomal DNA of Klebsiella oxytoca JCM 1665; experiment: Agarose gel electrophoresis of chromosomal DNA after EMA treatment, Klebsiella; type: cell-based; design: key: presence of this band was indicated as (+); absence of this band was indicated as (−); details: EMA 4° C. 30 minutes
# [4] = test system: contaminants in heparinized human blood; experiment: FCM of human blood by EMA-LNP-FP method versus LNP-FP method; type: cell-based; details: 10 μl of 1000 μg/ml EMA to 1 ml blood, 4° C. 5 minutes, visible light 5 minutes
# Protocol: Heparinized blood (type A) was collected from a healthy human subject, and a Listeria live cell suspension of 1.8×10^8 cfu/ml was diluted 10 times with the blood. The suspension was further serially diluted with the blood to prepare blood inoculated with 1.8×10^3 to […] cfu/ml of Listeria monocytogenes (live cells). […] Then, each sample was irradiated with visible light of 500 W for 5 minutes on ice. 750 μl of physiological saline, 200 μl of a 189 U/ml lipase solution and 10 μl of a 10000 U/ml deoxyribonuclease solution was added to each sample, and the sample was maintained at 30° C. for 30 minutes. […] The total volume of the aforementioned EMA-treated blood was carefully overlaid on 2 ml of Ficoll Paque filled beforehand in a 15 ml volume polypropylene tube, and subjected to centrifugation at 100×g for 5 minutes. […] The same procedure as that of the aforementioned method (referred to as the “EMA-LNP-FP method”) was also performed in parallel except that the EMA treatment was not performed (referred to as the “LNP-FP method”) to prepare a sample for FCM measurement.
# [5] = test system: chromosomal DNA of Salmonella enteritidis IID 604; experiment: Agarose gel electrophoresis of chromosomal DNA after EMA treatment, Salmonella; type: cell-based; design: key: presence of this band was indicated as (+); absence of this band was indicated as (−); details: EMA 4° C. 30 minutes
# [6] = test system: Staphylococcus epidermidis KD strain; experiment: FCM measurement after SYTO9/PI staining of LP-treated and EMA-treated Staphylococcus epidermidis suspensions; type: cell-based; details: EMA treatment after LP treatment; 10 μl of 1000 μg/ml EMA to 1 ml, 4° C. 30 minutes, visible light 500 W 10 minutes
# Escherichia coli DH5α = experiment: FCM measurement after SYTO9/PI staining of EMA-treated Escherichia coli suspensions (live, injured, dead cells); type: cell-based
# [7] = test system: chromosomal DNA of Escherichia coli DH5α; experiment: Agarose gel electrophoresis of chromosomal DNA after EMA treatment, Escherichia coli; type: cell-based; design: key: presence of this band was indicated as (+); absence of this band was indicated as (−)
# [8] = test system: contaminants of somatic cells and injured cells in LTLT non-homogenized milk; experiment: FCM after SYTO9/PI staining of LP-treated and EMA-treated LTLT non-homogenized milk not inoculated with bacteria; details: LP-treated and EMA-treated (LPE-treated) LTLT non-homogenized milk not inoculated
# Protocol: Each of the LTLT non-homogenized milk inoculated with Escherichia coli (live cells), LTLT non-homogenized milk inoculated with Staphylococcus epidermidis (live cells), and LTLT non-homogenized milk not inoculated with the bacteria was subjected to the same lipase treatment and proteinase K treatment (LP treatment) as well as EMA treatment as those in Example 2.
# FCM measurement was performed for each of the samples prepared above (measurement time: 5 minutes) in the same manner as that in Control Example 1.
# [9] = test system: Escherichia coli (injured cells); type: cell-based; details: injured cells inoculated at 1.5×10^6 cfu/ml; LP treatment and EMA treatment
# [10] = test system: Listeria monocytogenes JCM 2873; experiment: Colony formation of Listeria cultured with ampicillin and gentamycin; type: cell-based; details: ampicillin 500 μg/ml together with gentamycin 200 μg/ml, 30° C. for 3 weeks
# [11] = test system: Escherichia coli (live cells) and contaminants originated in UHT homogenized milk; type: cell-based; details: treatment after LP treatment, 37° C.; amsacrine 10 minutes, others 30 minutes; 7.5×10^6 cfu/ml
# Source text: Specific procedures are as shown in a) to d) described below.
# [12] = test system: Mycobacterium tuberculosis H37RA; type: cell-based
# [13] = after the EMA treatment (about 30 μg/ml, 4° C. 2.5 hours), injured cells treated with isonicotinic acid hydrazide and rifampicin
# [14] = after the EMA treatment, dead cells (boiling water 12 minutes)
# [15] = after the EMA treatment, injured cells (boiling water 50 seconds)
# [16] = after the EMA treatment, live cells
compound,measurement,setting,value
"CC[n+]1c(-c2ccccc2)c2cc(N=[N+]=[N-])ccc2c2ccc(N)cc21.[Cl-] [EMA, 8-azido-3-amino-6-phenyl-5-ethylphenanthradinium chloride]","PI region, injured cells",[1]; [13],PI(−) (results lower than that value are represented as PI(−))
same,"SYTO9 region, injured cells",[1]; [13],SYTO9(−) (results lower than that value are represented as SYTO9(−))
same,"SYTO9 region of main distribution, dead cells",[1]; [14],"SYTO9(+) (The boundary value of the intensity of the staining with SYTO9 is defined to be an intensity of 10^3, results exceeding that value are represented as SYTO9(+))"
same,SYTO9 intensity of the injured cells,[1]; by the EMA treatment,markedly shifted to the left direction
same,"LL band originated in chromosomal DNA, injured cells",[2]; EMA-treated injured cells,(−)
same,"LL band originated in chromosomal DNA, live cells",[2]; EMA-treated live cells,(+)
same,"LL band originated in chromosomal DNA, injured cells",[3]; EMA-treated injured cells,(−)
same,"LL band originated in chromosomal DNA, live cells",[3]; EMA-treated live cells,(+)
same,shift of plotted points of the contaminants corresponding to SYTO9(−)·PI(−),[4],not shifted to the left direction
same,"LL band originated in chromosomal DNA, injured cells",[5]; EMA-treated injured cells,(−)
same,"LL band originated in chromosomal DNA, live cells",[5]; EMA-treated live cells,(+)
same,distinction of live cells and injured cells by FCM,[6],the same results
same,distinction of live cells and injured cells by FCM,"Escherichia coli DH5α; EMA treatment after LP treatment, 10 μl of 1000 μg/ml EMA to 1 ml, 4° C. 30 minutes, visible light 500 W 10 minutes",clearly distinguish
same,intensity of staining with SYTO9 for injured cells,Escherichia coli DH5α; after the EMA treatment versus before,markedly decreased
same,"PI region of main distribution, dead cells",Escherichia coli DH5α; [14],"PI(+) (The boundary value of the intensity of the staining with PI is defined to be an intensity of 2×10^2, results exceeding that value are represented as PI(+))"
same,"SYTO9 region of main distribution, dead cells",Escherichia coli DH5α; [14],SYTO9(−) (results lower than that value are represented as SYTO9(−))
same,"PI region of main distribution, injured cells",Escherichia coli DH5α; [15],PI(−) (results lower than that value are represented as PI(−))
same,"SYTO9 region of main distribution, injured cells",Escherichia coli DH5α; [15],SYTO9(−) (results lower than that value are represented as SYTO9(−))
same,"PI region of main distribution, live cells",Escherichia coli DH5α; [16],PI(−) (results lower than that value are represented as PI(−))
same,"SYTO9 region of main distribution, live cells",Escherichia coli DH5α; [16],"SYTO9(+) (The boundary value of the intensity of the staining with SYTO9 is defined to be an intensity of 10^3, results exceeding that value are represented as SYTO9(+))"
same,"LL band originated in chromosomal DNA, dead cells",[7]; EMA-treated dead cells (FIG. 11),(−)
same,"LL band originated in chromosomal DNA, injured cells","[7]; EMA-treated injured cells, EMA 4° C. 30 minutes",(−)
same,"LL band originated in chromosomal DNA, live cells","[7]; EMA-treated live cells, EMA 4° C. 30 minutes",(+)
same,SYTO9 intensity,[8],below 5×10^2
same,plotted points in the SYTO9(+)·PI(−) region suggesting the presence of live cells,[9],hardly existed
CC1(C)S[C@@H]2[C@H](NC(=O)[C@H](N)c3ccccc3)C(=O)N2[C@H]1C(=O)O [ampicillin],colony formation on L agar medium,[10],did not form colonies
CC[C@@]1(O)C(=O)OCc2c1cc1n(c2=O)Cc2cc3ccccc3nc2-1 [camptothecin],separation of plotted areas of Escherichia coli (live cells) and contaminants,[11],clearly separated
O=C(O)c1cn(C2CC2)c2cc(N3CCNCC3)c(F)cc2c1=O [ciprofloxacin],separation of plotted areas of Escherichia coli (live cells) and contaminants,[11],clearly separated
Cc1c2ccncc2c(C)c2c1[nH]c1ccccc12 [ellipticine],separation of plotted areas of Escherichia coli (live cells) and contaminants,[11],clearly separated
NNC(=O)c1ccncc1 [isonicotinic acid hydrazide],colony formation on 7H10 medium,[12],did not form colonies
gentamycin,colony formation on L agar medium,[10],did not form colonies
